# According to ChEMBL document CHEMBL3132787, “Polyhydroxylated pyrrolidine and 2-oxapyrrolizidine as glycosidase inhibitors” (Medchemcomm, 2013):
# Assays:
# [1] = test system: Helix pomatia; test: Inhibition of Helix pomatia beta-mannosidase using p-nitrophenyl glycoside as substrate assessed as residual activity at 1 mM after 25 mins by spectrophotometer analysis
# [2] = target: Alpha-galactosidase (Coffea arabica) (UniProt Q42656); test: Inhibition of green coffee bean alpha-galactosidase using p-nitrophenyl glycoside as substrate assessed as residual activity at 1 mM after 25 mins by spectrophotometer analysis
# [3] = test system: Prunus dulcis; test: Inhibition of sweet almond beta-glucosidase using p-nitrophenyl glycoside as substrate assessed as residual activity at 1 mM after 25 mins by spectrophotometer analysis
# [4] = test system: Canavalia ensiformis; test: Inhibition of jack bean alpha-mannosidase using p-nitrophenyl glycoside as substrate assessed as residual activity at 1 mM after 25 mins by spectrophotometer analysis
# [5] = target: Beta-galactosidase (Escherichia coli) (UniProt Q8VNN2); test: Inhibition of Escherichia coli beta-galactosidase using p-nitrophenyl glycoside as substrate assessed as residual activity at 1 mM after 25 mins by spectrophotometer analysis
# [6] = test system: Geobacillus stearothermophilus; test: Inhibition of Bacillus stearothermophilus alpha-glucosidase using p-nitrophenyl glycoside as substrate assessed as residual activity at 1 mM after 25 mins by spectrophotometer analysis
# [7] = target: Alpha-galactosidase (Coffea arabica, UniProt Q42656); test: Competitive inhibition of green coffee bean alpha-galactosidase using p-nitrophenyl glycoside as substrate by Lineweaver-Burk plot analysis
# [8] = Competitive inhibition of sweet almond beta-glucosidase using p-nitrophenyl glycoside as substrate by Lineweaver-Burk plot analysis; set-up: species or system Prunus dulcis
# Beta-galactosidase (Escherichia coli), sequence (Q8VNN2 whole entry, looked up): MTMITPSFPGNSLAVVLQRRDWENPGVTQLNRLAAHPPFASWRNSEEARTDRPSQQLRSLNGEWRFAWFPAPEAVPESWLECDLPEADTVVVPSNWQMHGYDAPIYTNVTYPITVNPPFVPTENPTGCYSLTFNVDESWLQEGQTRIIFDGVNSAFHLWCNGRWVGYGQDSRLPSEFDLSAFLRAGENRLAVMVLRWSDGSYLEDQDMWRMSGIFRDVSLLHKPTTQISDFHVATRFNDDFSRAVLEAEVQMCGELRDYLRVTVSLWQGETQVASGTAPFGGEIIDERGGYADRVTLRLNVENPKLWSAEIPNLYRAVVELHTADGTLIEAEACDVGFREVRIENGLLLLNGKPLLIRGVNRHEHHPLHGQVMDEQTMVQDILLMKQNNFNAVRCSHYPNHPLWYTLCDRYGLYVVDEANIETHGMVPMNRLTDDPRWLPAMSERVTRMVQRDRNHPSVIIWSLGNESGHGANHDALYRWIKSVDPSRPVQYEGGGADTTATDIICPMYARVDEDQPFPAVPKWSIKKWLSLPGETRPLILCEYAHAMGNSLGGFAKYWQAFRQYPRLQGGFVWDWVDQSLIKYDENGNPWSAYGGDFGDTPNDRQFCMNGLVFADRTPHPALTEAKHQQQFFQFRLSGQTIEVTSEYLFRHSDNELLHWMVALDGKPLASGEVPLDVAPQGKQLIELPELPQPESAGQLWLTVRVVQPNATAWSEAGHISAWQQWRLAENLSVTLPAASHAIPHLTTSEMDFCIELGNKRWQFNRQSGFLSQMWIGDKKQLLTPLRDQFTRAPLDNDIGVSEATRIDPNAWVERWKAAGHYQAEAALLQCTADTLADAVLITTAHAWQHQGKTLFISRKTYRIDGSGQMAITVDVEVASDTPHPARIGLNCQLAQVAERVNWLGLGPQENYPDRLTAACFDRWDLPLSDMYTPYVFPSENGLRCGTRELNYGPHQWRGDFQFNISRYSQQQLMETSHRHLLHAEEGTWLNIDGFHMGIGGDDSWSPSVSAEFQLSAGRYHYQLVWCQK
# Alpha-galactosidase (Coffea arabica), sequence (Q42656 16-378 limits assumed): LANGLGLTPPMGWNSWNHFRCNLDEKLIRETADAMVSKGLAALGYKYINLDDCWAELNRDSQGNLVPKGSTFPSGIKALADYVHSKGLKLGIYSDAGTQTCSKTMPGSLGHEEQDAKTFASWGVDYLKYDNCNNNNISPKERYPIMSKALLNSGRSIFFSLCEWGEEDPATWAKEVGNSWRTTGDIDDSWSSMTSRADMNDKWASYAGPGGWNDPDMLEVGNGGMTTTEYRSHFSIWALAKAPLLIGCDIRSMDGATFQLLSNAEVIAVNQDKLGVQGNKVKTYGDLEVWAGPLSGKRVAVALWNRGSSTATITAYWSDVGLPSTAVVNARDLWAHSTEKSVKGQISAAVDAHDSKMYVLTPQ
# Alpha-galactosidase, sequence (Q42656 whole entry): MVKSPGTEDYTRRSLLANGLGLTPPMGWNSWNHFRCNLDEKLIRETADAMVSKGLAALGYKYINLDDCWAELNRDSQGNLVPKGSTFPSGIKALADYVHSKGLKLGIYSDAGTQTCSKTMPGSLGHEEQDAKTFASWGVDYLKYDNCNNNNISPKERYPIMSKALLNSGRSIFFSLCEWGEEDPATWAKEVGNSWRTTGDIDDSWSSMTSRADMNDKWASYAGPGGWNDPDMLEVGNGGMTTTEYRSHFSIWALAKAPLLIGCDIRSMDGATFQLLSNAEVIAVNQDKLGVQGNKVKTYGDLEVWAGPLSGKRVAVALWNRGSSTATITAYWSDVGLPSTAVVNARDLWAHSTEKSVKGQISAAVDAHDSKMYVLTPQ
SMILES,Activity [1] [%],Activity [2] [%],Activity [3] [%],Activity [4] [%],Activity [5] [%],Activity [6] [%],Ki [7] [µM],Ki [8] [µM]
O=C(NCCP(=O)(O)O)[C@@H]1C[C@H](O)[C@@H](CO)N1,93.7,107,83.6,83.9,55.8,97.1,,
O=C1OC[C@@H]2C[C@H](O)[C@@H](CO)N12,98.7,5.4,75.7,72.2,109,39.1,40.8,
O=C(O)[C@@H]1C[C@H](O)[C@@H](CO)N1,99.3,95.2,115,82,90.7,110,,

# Second part, the compound after the results:
Activity [1] [%],Activity [2] [%],Activity [3] [%],Activity [4] [%],Activity [5] [%],Activity [6] [%],Ki [7] [µM],Ki [8] [µM],SMILES
100,91.9,96.1,76.8,114,97,,,O=P(O)(O)OC[C@@H]1C[C@H](O)[C@@H](CO)N1
97,50.4,1.7,102,53.5,12.8,,29.2,OC[C@@H]1C[C@H](O)[C@@H](CO)N1
